{"source": "patent US4788304A", "about": "“Phospholipase A2 inhibitors” (American Home Products Corporation, priority 1987, dated 1988)", "key": {"[1]": {"system": "synthesis of LTB4 by rat glycogen-elicited polymorphonuclear leukocytes (PMN)", "experiment": "Inhibition of LTB4 synthesis by rat glycogen-elicited polymorphonuclear leukocytes (PMN)", "assay_type": "cell-based, rat (female Wistar)", "details": "Leukocyte, A23187-stimulated rat PMN"}, "[2]": {"system": "AA-induced mouse ear edema", "experiment": "Arachidonic acid (AA)-induced murine ear edema test", "assay_type": "in vivo, mouse (Swiss Webster)", "details": "1 mg/ear, 30 min prior to AA, measured 1 h after AA"}, "[3]": {"system": "oxazolone-induced contact hypersensitivity in the mouse ear", "experiment": "Oxazolone-induced contact hypersensitivity in the mouse ear", "assay_type": "in vivo, mouse (Swiss Webster)", "details": "dosed at 1 mg/ear", "protocol": "The assay of this Example measures the ability of the compounds in the scope of the invention to inhibit oxazolone-induced contact hypersensitivity in the mouse ear.\nFemale, Swiss Webster mice (8 weeks old) are placed into groups of 6 and the abdominal area of each is shaved. The mice are sensitized to oxazolone (4-ethoxymethylene-2-phenyl-oxazol-5-one) by applying 100 μl of a 2% solution in 95% alcohol directly onto the shaved abdomen using an automatic pipette and rubbing the residual oxazolone into the skin with a round wooden stick. Six days after sensitization each mouse is challenged by applying 20 μl of a 2% oxazolone solution in 95% alcohol to the right ear (10 μl on each side) and 20 μl of alcohol alone to the left ear. Compounds for topical applications are prepared in acetone and administered to the right ear 30 min after challenge or 30 min prior to and 5 h after challenge; acetone (vehicle) is applied to the left ear. Compounds for oral administration are suspended in 0.5 ml of 0.5% methyl cellulose and given ten min prior to challenge. Ear thickness of both ears is measured in mm×10^-2 at 24 and 48 h after challenge using an Oditest caliper. Edema is calculated by subtracting the left ear thickness from the right ear thickness. Drug effects are determined by calculating the percentage change from control for each time period."}, "[4]": {"system": "bronchospasm induced in guinea pigs by endogenous mediators of the bronchoconstriction", "experiment": "Ovalbumin-induced bronchospasm in guinea pigs", "assay_type": "in vivo, guinea pig (Hartley)", "details": "Cavia porcellus; intraduodenally administered, 10 minutes before intravenously administered ovalbumin challenge", "protocol": "The assay of this Example measures the in vivo ability of the compounds in the scope of the invention to inhibit the bronchospasm induced in guinea pigs by endogenous mediators of the bronchoconstriction.\nMale Hartley strain guinea pigs weighing 250-350 g are sensitized to chicken ovalbumin (OA) (10 mg i.p.) on days 1 and 3 and used starting on day 26. The animals are anesthetized with pentobarbital sodium (50 mg/kg, i.p.), bilateral vagotomy is performed, and the jugular vein is cannulated for injection of drugs and the carotid artery for monitoring blood pressure. The trachea is cannulated for artificial ventilation by miniature Starling pump and for indirect measurement of respiratory volume changes as described, infra. Succinylcholine (2 mg/kg, i.v.) is administered to arrest spontaneous respiration. […]\nRespiratory volume changes are determined by a calibrated piston whose travel is recorded, via a linear transducer, on a Beckman Dynograph recorder. Maximal bronchoconstrictor volume is determined by clamping off the trachea at the end of the experiment. Overflow volumes at minutes 1, 3 and 5 are obtained from the recorded charts.\nArea under the volume overflow curve (AUC) is estimated, using the overflow values at 1, 3 and 5 minutes, and expressed as a percentage of the maximal overflow AUC (equation 1): [formula] […]"}}, "data": [{"smiles": "COC(=O)C1(C(=O)CCCCOc2ccc(Cl)cc2)CO1", "note": "(stereo not shown) [Example 6A, 2-[5-(4-Chlorophenoxy)-1-oxopentyl]-2-oxiranecarboxylic acid methyl ester]", "values": [{"measurement": "inhibition at 10 µM", "setting": "[1]", "value": 11, "unit": "%"}, {"measurement": "Mouse Ear Edema Assay, % Change from Control, TOPICAL, AA", "setting": "[2]", "value": -38, "unit": "%"}, {"measurement": "% Inhibition (oxazolone contact hypersensitivity)", "setting": "[3]", "value": 34.3, "unit": "%"}, {"measurement": "ED50", "setting": "[4]", "value": 13.5, "unit": "mg/kg"}]}]}
